Measurements: article PMC7870075, “Physicochemical properties and formulation development of a novel compound inhibiting Staphylococcus aureus biofilm formation” (PLoS ONE, 2021)
≈ marks a conversion by molar mass, not a printed value. Where “and” joins values, the source holds several entries; their conditions need not be identical. Equal values may be shown once. Read-outs that look alike come from different tables or passages of the source.

How the values were obtained:
[1] = Mammalian cell cytotoxicity assay (CCK-8); type: cell-based, human; conditions: human, TZM-bL cells, 24 h
Procedure: (§1) Cell cytotoxicity assay was performed by following previous protocols with minor revision. TZM-bL cells which is a HeLa cell derivative (a generous gift from Dr. Xiao Heng, University of Missouri) (100 μL, 5,000 cells per well) were grown in Dulbecco’s modified Eagle’s medium (DMEM) (Life Technologies, Grand Island, NY, USA) with 10% fetal bovine serum for 24 h at 37°C in 5% CO2 in duplicates. Supernatant was replaced with 100 μL fresh medium with different concentrations of CCG-211790 to culture the cells for 24 h at 37°C in 5% CO2. DMSO was used as the vehicle control. Ten μL of Cell Counting Kit-8 (CCK-8) solution (APExBIO, Houston, TX, USA) was added to each well of the plate. After 2 h, the plate was read at 450 nm by using a BioTek spectrophotometer (BioTek, Winooski, VT, USA). One hundred percent viability was set at the absorbance of the cells treated with only the vehicle (DMSO). The assay was performed twice in duplicates to obtain the mean and standard deviation of cell viability. The cell viability (survival rate) was calculated with the equation: Survival rate (%) = [(As—Ab) / (Ac—Ab)] x 100, As = Absorbance of tested compound (Absorbance of well containing cells, culture medium, CCK-8 and compound), Ab = Absorbance of blank (Absorbance of well containing culture medium and CCK-8), Ac = Absorbance of control (Absorbance of well containing cell, DMSO and CCK-8).

[2] = tested on: TZM-bL cells; experiment: Mammalian cell cytotoxicity assay (CCK-8); type: cell-based, human; conditions: for Cell viability %: single samples
Procedure: as §1

[3] = Solubility in organic solvents; type: physicochemical; conditions: thermodynamic from solid
Procedure: The concentration of CCG-211790 in organic solvents was carried out on a LabTech BlueStar plus UV-Vis spectrophotometer (Hopkinton, MA, USA) using dimethylformamide (DMF) as a reference solvent. UV-Vis absorption spectra were recorded in a wavelength range from 200–500 nm with samples placed in a quartz cuvette. CCG-211790 concentrations in organic solvents were determined based on the absorption of CCG-211790 at characteristic wavelength of 314 nm. Calibration curves were established giving a correlation coefficient more than 0.999. The solubility of CCG-211790 in organic solvents were also determined. CCG-211790 bulk powder was added in excess to 0.1–1 mL of an organic solvent. After ultrasonication for 30 min and incubation for 24 h at room temperature on a shaking platform to reach the saturation status, sample aliquots (0.5 mL) were centrifuged at 10,400 ×g for 10 min, and 10 μL of supernatant was diluted 500–50,000-fold with dimethylformamide (DMF). The saturation solubility of CCG-211790 in various organic solvents was determined via ultraviolet-visible spectrophotometry (UV-Vis) with DMF as the reference solvent.

[4] = TZM-bL cells (HeLa cell derivative), single samples, read-out: Cell viability %
[5] = TZM-bL cells (HeLa cell derivative), read-out: Mean of cell viability

Compound COc1ccc2c(c1)-c1nc(SCC(F)(F)F)n(C)c(=O)c1C(C)(C)C2 [CCG-211790, 9-Methoxy-3,5,5-trimethyl-2-((2,2,2-trifluoroethyl)thio)-5,6-dihydrobenzo[h]quinazolin-4(3H)-one] has a viability at 24 h, 6.25 µM [1, 4] of 79.6%, a viability at 24 h, 6.25 µM [1, 5] of 84.3% and a viability at 24 h, 12.5 µM [1, 4] of 80.8%. The viability at 24 h, 12.5 µM [1, 5] was 76.2%, the viability at 24 h, 25 µM [1, 4] was 69% and the viability at 24 h, 25 µM [1, 5] was 65.3%. For the same compound, the viability at 24 h, 50 µM ([1]; TZM-bL cells (HeLa cell derivative), 50 µM, single samples, read-out: Cell viability %) was 61.3%, the viability at 24 h, 50 µM ([1]; TZM-bL cells (HeLa derivative), 50 μM, normalized to DMSO, read-out: cell survival rate (mean of cell viability)) was 56.1 ± 5.3% and the “cytotoxic concentration (50 μM) as fold of the anti-biofilm IC50” value ([2]; 50 μM on TZM-bL cells vs biofilm IC50) was “about 39 fold”. For the same compound, the Cell viability % ([2]; TZM-bL cells, 6.25 µM, 24 h) was 86.99% and 84.77% and 85.92%, the Cell viability % ([2]; TZM-bL cells, 12.5 µM, 24 h) was 82.11% and 70.18% and 71.70% and the Cell viability % ([2]; TZM-bL cells, 25 µM, 24 h) was 69.05% and 56.68% and 66.50%. For the same compound, the “cell survival rate (mean of cell viability)” value ([2]; TZM-bL cells, 50 μM, 24 h, normalized to DMSO) was 56.05%, the Cell viability % ([2]; TZM-bL cells, 50 µM, 24 h) was 57.46% and 48.66% and 56.82% and the solubility at 24 h ([3]; oil or lipid, Canola oil, room temperature, read-out: Solubility) was 24.7 mg/mL (≈ 64.3 mM). The solubility at 24 h ([3]; oil or lipid, Coconut oil, room temperature, read-out: Solubility) was 37.2 mg/mL (≈ 96.8 mM), the solubility at 24 h ([3]; oil or lipid, Oleic acid, room temperature, read-out: Solubility) was 24.1 mg/mL (≈ 62.7 mM) and the solubility at 24 h ([3]; oil or lipid, Olive oil, room temperature, read-out: Solubility) was 24.3 mg/mL (≈ 63.2 mM). For the same compound, the solubility at 24 h ([3]; oil or lipid, Peanut oil, room temperature, read-out: Solubility) was 22.3 mg/mL (≈ 58 mM), the solubility at 24 h ([3]; oil or lipid, Safflower oil, room temperature, read-out: Solubility) was 22.7 mg/mL (≈ 59 mM) and the solubility at 24 h ([3]; oil or lipid, Sesame oil, room temperature, read-out: Solubility) was 22.7 mg/mL (≈ 59 mM). The solubility at 24 h ([3]; oil or lipid, Sunflower oil, room temperature, read-out: Solubility) was 20 mg/mL (≈ 52 mM), the solubility at 24 h ([3]; oil or lipid, range over the edible oils of Table 2, read-out: solubility in edible oils) was 20 to 37.2 mg/mL (≈ 52 to 96.8 mM) and the solubility at 24 h ([3]; organic solvent or mixture, Acetonitrile, room temperature, read-out: Solubility) was 57.6 mg/mL (≈ 150 mM). For the same compound, the solubility at 24 h ([3]; organic solvent or mixture, Dimethyl sulfoxide, room temperature, read-out: Solubility) was 66.7 mg/mL (≈ 174 mM), the solubility at 24 h ([3]; organic solvent or mixture, Dimethylacetamide, room temperature, read-out: Solubility) was 278 mg/mL (≈ 724 mM) and the solubility at 24 h ([3]; organic solvent or mixture, Dimethylformamide, room temperature, read-out: Solubility) was 215 mg/mL (≈ 560 mM). For the same compound, the solubility at 24 h ([3]; organic solvent or mixture, Ethanol, room temperature, read-out: Solubility) was 18.2 mg/mL (≈ 47.3 mM), the solubility at 24 h ([3]; organic solvent or mixture, Glycerin, room temperature, read-out: Solubility) was 1.3 mg/mL (≈ 3.38 mM) and the solubility at 24 h ([3]; organic solvent or mixture, Isopropyl alcohol, room temperature, read-out: Solubility) was 15.4 mg/mL (≈ 40.1 mM).
